In patent publication US9717703B2, “Emulsion and emulsion preconcentrate compositions comprising omega-3 fatty acids and uses thereof are disclosed” (GLAXOSMITHKLINE LLC, priority 2009, dated 2017):

Assay: Clinical study Part B, two-week repeat dose plasma EPA/DHA pharmacokinetics
Settings: human, in vivo
Excerpt: Part A comprised single dose administration of emulsion pre-concentrate capsules or liquid emulsion equivalent to 1.68 g LOVAZA®. Part B comprised two-week, repeat dosing of selected doses of the emulsion pre-concentrate capsules. […] Part B was a single blind, randomized, parallel group, placebo controlled study consisting of a 2-week repeat dose period with 3 dose levels of the K85EE emulsion pre-concentrate capsules, and one dose of LOVAZA®. Within each cohort, at least eight healthy subjects were randomized to an active treatment group, and at least 2 subjects were randomized to a matching placebo (1000 mg capsule containing corn oil, NF 994 mg and D-Alpha Tocopherol, USP 6 mg). Data from placebo subjects was pooled for analysis. Subjects, checked into the clinical research unit, participated in a test meal on Day -2 and had 24-hr baseline EPA/DHA profiles on Day -1 and Day 1. Subjects were released from the clinic on Day 2, and returned for daily dosing on Days 3 through 12 (with a brief outpatient visit on Day 6). Subjects checked into the clinic again on the evening of Day 12, and on Day 13 they had 24-hr EPA/DHA profiles collected. Subjects were released from the clinic on Day 14, following procedures including a test meal and triglyceride sampling. In Part B, subjects were assigned to either a) one of 3 dose levels of the K85EE emulsion pre-concentrate capsules, b) LOVAZA®, or c) to placebo to match one of the 4 active treatments. Subjects were blinded as to whether they were receiving an active treatment or the corresponding placebo. The randomization ratio for active:placebo within each cohort was 4:1. Part B treatments are summarized below: The K85EE emulsion pre-concentrate capsules and LOVAZA® were administered as capsules, once daily in the manner described for Part A, and the placebos were administered as for the corresponding active treatment. Subjects were required to fast only on PK sampling days. Plasma EPA and DHA concentrations were determined according to the above method.

Free DHA AUC (0-24 h) Geometric LS Mean, Ref. (Day 1): 5.61 µg·h/mL | Free DHA AUC (0-24 h) Geometric LS Mean, Test (Day 13): 9.40 µg·h/mL | Free DHA Cmax Geometric LS Mean, Ref. (Day 1): 0.43 µg/mL | Free DHA Cmax Geometric LS Mean, Test (Day 13): 0.79 µg/mL | Free EPA AUC (0-24 h) Geometric LS Mean, Ref. (Day 1): 1.66 µg·h/mL | Free EPA AUC (0-24 h) Geometric LS Mean, Test (Day 13): 3.22 µg·h/mL | Free EPA Cmax Geometric LS Mean, Ref. (Day 1): 0.09 µg/mL | Free EPA Cmax Geometric LS Mean, Test (Day 13): 0.20 µg/mL | Total DHA AUC (0-24 h) Geometric LS Mean, Ref. (Day 1): 810.21 µg·h/mL | Total DHA AUC (0-24 h) Geometric LS Mean, Test (Day 13): 1356.51 µg·h/mL | Total DHA Cmax Geometric LS Mean, Ref. (Day 1): 38.29 µg/mL | Total DHA Cmax Geometric LS Mean, Test (Day 13): 65.37 µg/mL | Total EPA AUC (0-24 h) Geometric LS Mean, Ref. (Day 1): 251.67 µg·h/mL | Total EPA AUC (0-24 h) Geometric LS Mean, Test (Day 13): 611.34 µg·h/mL | Total EPA Cmax Geometric LS Mean, Ref. (Day 1): 12.86 µg/mL | Total EPA Cmax Geometric LS Mean, Test (Day 13): 30.84 µg/mL
Substance: omega-3-acid ethyl esters [LOVAZA]
